Results reported in patent publication EP4644375A1, “SUBSTITUTED HYDROQUINOLINES FOR THE TREATMENT OF GLIOBLASTOMA MULTIFORME” (Molius Saglik Teknolojileri Anonim Sirketi, priority 2024, dated 2025).
“Also recorded” adds a separate entry of the source.

How the values were obtained:
[1] = tested on: U138-MG human glioma cell; assay: Cell proliferation analysis (MTT); format: cell-based; conditions: for activity at 10 µM / inhibition at 10 µM: Homo sapiens, 48 h, two days, MTT
[2] = tested on: U87-MG human glioma cell; assay: Cell proliferation analysis (MTT); format: cell-based; conditions: for activity at 10 µM / inhibition at 10 µM: Homo sapiens, U-87 MG, 48 h, two days, MTT
[3] = tested on: GBM xenograft rat model; assay: In vivo GBM rat model: survival; conditions: GBM rats, 30 mg/kg oral gavage once daily for 5 days, 14th to 28th day, compared to untreated GBM rats
Method: An in Vivo study was performed to assess the therapeutic potential of TR-G002, TR-G045, TR-G053, TR-G066, TR-G071 and TR-G091 in the GBM xenograft rat model when administered orally by gavage for five consecutive days. 152 female rats of the Sprague Dawley strain were allocated to the study. Six groups of sixteen females were given dose of 30 mg/kg of the respective target compounds. […] The study design can be seen in Fig. 11 and Table 10.
Female Sprague Dawley rats (age: 6-8 weeks; weight: 255-310 g; ATADEM, Erzurum, Turkey) were utilized in the study. Rats underwent anaesthesia with 5% isoflurane, maintained at 2% isoflurane (1 L/min oxygen), and were positioned in a stereotactic frame for cell implantation (Stoelting Co., IL). […] A burr hole was drilled 1-mm anterior and 3-mm lateral to the right bregma. A microsyringe (Hamilton 1700 series) containing 5×10^4 U87-MG cells suspended in 5 µL of medium at 37 °C was advanced to a depth of 4 mm into the brain. The cells were injected at a rate of 3 µL/ min. Bone wax was used to fill the burr hole to prevent cell suspension reflux. The incision was sutured, and 1 mL of Meloxicam (5 mg/mL; Metacam, Boehringer Ingelheim Vetmedica, Ingelheim, Germany) was administered via a subcutaneous injection.
Fourteen days after inoculation, tumor development in rats was visualized and confirmed through magnetic resonance imaging (MRI). Rats confirmed to have developed tumors were then distributed into six different groups for treatment. […] 9 days after the final treatment dose, the rats underwent another MRI scan and blood and brain samples were taken under anaesthesia.

[4] = tested on: CMPK2; assay: In vivo GBM rat model: immunohistochemical examination; conditions: tumor cells, brain tissues, GBM rats, 30 mg/kg oral, 5 days
Text: (§1) For immunohistochemical examinations, primary antibodies (Ki67 Cat no: ab15580 dilution ratio: 1/100; CMPK2 Cat no: PA5-34461, dilution ratio: 1/100, GFAP Cat no: ab6842 dilution ratio: 1/100) were used. 3-3' Diaminobenzidine (DAB) was used as chromogen. Mayer's hematoxylin was used for counterstaining. Sections were examined under a light microscope (Zeiss AXIO, Germany).
(§2) Individual body weights were manually calculated. Group mean body weights; group mean body weight changes and organ weights were also manually calculated without statistical analysis. To determine the density of positive staining from immunohistochemical and immunofluorescence staining images, five randomly selected areas were evaluated using ZEISS Zen Imaging Software. Data were statistically defined as mean and standard deviation (mean ± SD) for the percentage of the area. One-way ANOVA followed by the Tukey test was performed to compare immunoreactive cells and immune-positive stained areas with healthy controls. GraphPad Prism software was used for analysis.

[5] = tested on: GFAP; assay: as above; conditions: brain tissues, GBM rats, 30 mg/kg oral, 5 days
Text: as §1, §2

[6] = tested on: Ki67; assay: as above; conditions: tumor cells, brain tissues, GBM rats, 30 mg/kg oral, 5 days
Text: as §1, §2

[7] = In vivo GBM rat model: haematology; conditions: GBM rats, 30 mg/kg oral, 5 days, blood at necropsy
Method: (§3) The parameters that were analysed can be seen in Table 11.

[8] = In vivo GBM rat model: plasma chemistry; parameters: CREA. / UA / TCHOL / HDLC: unit not given here; conditions: for ALP / ALT / AST / CREA. / GLU / HDLC / LDH / LDL C / TCHOL / TG / UA: GBM rats, 30 mg/kg oral, 5 days, plasma at necropsy; for levels of AST, ALT and LDH: in comparison to the levels in untreated GBM rats
Method: as §3

[9] = Peripheral blood micronucleus assay; format: in vivo, Rat; conditions: for MN frequency: GBM rats, 30 mg/kg oral, 5 days, 1000 cells per animal evaluated
Method: Blood smears were made on clean microscope slides, allowed to air-dry, treated with methanol for fixation, and then stained with Giemsa (10% in 0.1 mM of sodium phosphate buffer, pH 6.8) for 10 min. After washing with PBS, the slides were examined under a light microscope. The frequencies of micronuclei (MN) were calculated by evaluating 1000 cells per animal.

SMILES | inhibition at 10 µM [1] [%] | inhibition at 10 µM [2] [%] | expression of CMPK2 [4] | GFAP expression in astrocytes around the tumor [5] | expression of Ki67 [6] | HCT [7] [%] | HGB [7] [g/dL] | MCH [7] [pg] | MCHC [7] [g/dL] | MCV [7] [fL] | PLT [7] | RBC [7] | WBC [7] | ALP [8] [IU/L] | ALT [8] [IU/L] | AST [8] [IU/L] | CREA. [8] | GLU [8] [mg/dL] | HDLC [8] | LDH [8] [IU/L] | further results
CC(C)CCOc1ccc2c(c1)CCC(=O)N2 [TR-G002, 6-(isopentyloxy)-3,4-dihydroquinolin-2(1H)-one] | 48 | 52 | mild | severe | mild | 48.53 | 14.88 | 18.43 | 30.71 | 59.99 | 805.75 10^9 /L | 8.11 10^12/L | 3.65 10^9/L | 124.22 | 48.37 | 129.93 | 0.31 | 317 | 37.5 | 535.72 | activity at 10 µM [1]: 52%; activity at 10 µM [2]: 48%; survival ([3]; 30 mg/kg): significantly improved survival; also recorded: prolonged survival; LDL C [8]: 4.42 mmol/L; TCHOL [8]: 54.38; TG [8]: 115 mg/dL; UA [8]: 1.71; MN frequency [9]: 11.62 ± 2.34
O=C1CCc2cc(OS(=O)(=O)c3cccc4ccccc34)ccc2N1 [TR-G045, 2-oxo-1,2,3,4-tetrahydroquinolin-6-yl naphthalene-1-sulfonate] | 30 | 29 | moderate | moderate | moderate | 47.24 | 14.12 | 18.46 | 30.54 | 60.48 | 845.60 10^9 /L | 8.34 10^12/L | 4.32 10^9/L | 138.47 | 54.5 | 104.7 | 0.35 | 316 | 37.58 | 506.78 | activity at 10 µM [1]: 71%; activity at 10 µM [2]: 71%; survival ([3]; 30 mg/kg): significantly improved survival; also recorded: prolonged survival; LDL C [8]: 5.28 mmol/L; TCHOL [8]: 56.52; TG [8]: 120 mg/dL; UA [8]: 1.6; levels of AST, ALT and LDH [8]: significantly decreased; MN frequency [9]: 12.05 ± 1.78
C=Cc1ccc(COc2ccc3c(c2)CCC(=O)N3)cc1 [TR-G053, 6-((4-vinylbenzyl)oxy)-3,4-dihydroquinolin-2(1H)-one] | 47 | 58 | severe | mild | severe | 48.77 | 14.67 | 17.83 | 30.07 | 59.33 | 823.33 10^9 /L | 8.23 10^12/L | 3.40 10^9/L | 125.67 | 44.57 | 96.87 | 0.34 | 293 | 34.33 | 514 | activity at 10 µM [1]: 53%; lowest cell proliferation [2]: 42%; activity at 10 µM [2]: 42%; top 5 target compounds whose treatment resulted in the lowest proliferation ([2]; ranking): top 5; survival [3]: prolonged survival; LDL C [8]: 5.63 mmol/L; TCHOL [8]: 56.33; TG [8]: 117 mg/dL; UA [8]: 1.64; levels of AST, ALT and LDH [8]: significantly decreased; MN frequency [9]: 9.67 ± 1.21; MN frequency (comparison) ([9]; treated GBM rats): lowest MN frequency
O=C(COc1ccc2c(c1)CCC(=O)N2)N/N=C/c1cnc(-c2ccc(Cl)cc2)nc1 [TR-G066, (E)-N'-((2-(4-chlorophenyl)pyrimidin-5-yl)methylene)-2-((2-oxo-1,2,3,4-tetrahydroquinolin-6-yl)oxy)acetohydrazide] | 62 | 33 | very mild | very severe | very mild | 46.30 | 15.00 | 18.51 | 31.11 | 59.60 | 799.14 10^9 /L | 8.12 10^12/L | 4.57 10^9/L | 137.08 | 38.94 | 96.48 | 0.38 | 295 | 34.24 | 476.16 | lowest cell proliferation [1]: 39%; survival ([3]; 30 mg/kg): significantly improved survival; also recorded: highest survival; also recorded: prolonged survival; LDL C [8]: 4.94 mmol/L; TCHOL [8]: 58.56; TG [8]: 122 mg/dL; UA [8]: 1.7; levels of AST, ALT and LDH [8]: significantly decreased; MN frequency [9]: 10.91 ± 1.89
C=CCOC(=O)COc1ccc2c(c1)CCC(=O)N2 [TR-G071, Allyl 2-((2-oxo-1,2,3,4-tetrahydroquinolin-6-yl)oxy)acetate] | 0 | 3 | moderate | moderate | moderate | 48.15 | 14.15 | 17.65 | 31.20 | 58.65 | 823.00 10^9 /L | 8.56 10^12/L | 3.82 10^9/L | 130.5 | 61.25 | 132.5 | 0.34 | 295 | 34.9 | 504.2 | activity at 10 µM [1]: 100%; activity at 10 µM [2]: 97%; survival [3]: prolonged survival; LDL C [8]: 5.65 mmol/L; TCHOL [8]: 53.35; TG [8]: 129 mg/dL; UA [8]: 1.69; MN frequency [9]: 12.43 ± 2.09
COc1cc(NC(=O)COc2ccc3c(c2)CCC(=O)N3)cc(OC)c1 [TR-G091, N-(3,5-dimethoxyphenyl)-2-((2-oxo-1,2,3,4-tetrahydroquinolin-6-yl)oxy)acetamide] | 14 | -1 | moderate | Moderate | moderate | 43.95 | 13.80 | 17.90 | 31.40 | 56.95 | 744.50 10^9 /L | 7.73 10^12/L | 6.56 10^9/L | 122.87 | 46.97 | 127.9 | 0.29 | 299 | 36.57 | 546.17 | activity at 10 µM [1]: 86%; activity at 10 µM [2]: 101%; survival [3]: prolonged survival; LDL C [8]: 5.03 mmol/L; TCHOL [8]: 54.43; TG [8]: 121 mg/dL; UA [8]: 1.7; MN frequency [9]: 11.65 ± 2.30
